Holding throughout (assay type): cell-based, Saccharomyces cerevisiae
One assay has as its system S. cerevisiae. In words: 8 point dose curve for chemical genomic profiling. Conditions: YP-galactose media, 24 hours of growth. The procedure:
Chemical genomic analysis of poacic acid was performed as described as described previously. The tested yeast deletion collection had ˜4000 strains using the genetic background described in Andrusiak (2012). The optimal inhibitory concentration of poacic acid for chemical genomic profiling (70-80% growth versus solvent control in YP-galactose media after 24 hours of growth) was determined using an 8 point dose curve. A concentration of 88 μg/ml inhibited growth within this range. 200 μl cultures of the pooled, deletion collection of S. cerevisiae deletion mutants were grown with 88 μg/ml poacic acid or a DMSO control in triplicate for 48 h at 30° C. Genomic DNA was extracted using the Epicentre MasterPure™ Yeast DNA purification kit. Mutant-specific molecular barcodes were amplified with specially designed multiplex primers. The barcodes were sequenced using an Illumina MiSeq. 3 replicates of each condition (poacic acid vs DMSO) were sequenced. One DMSO control was lost due to poor sequencing reads. The barcode counts for each yeast deletion mutant in the presence of poacic acid were normalized against the DMSO control conditions to define sensitivity or resistance of individual strains. To determine a p-value for each top sensitive and resistant mutant, we used the EdgeR package. […]

Assay [1] relates to Y133 pad1Δfdc1Δ. Kind of assay: IC50 / tolerance, growth inhibition. The following applies: FIG. 5C; p<0.01.
The next assay concerns Y133 + pPAD1. Kind of assay: GVL IC50, single mutant cultures. Conditions: FIG. 4D. From the text: We wanted to extend our chemical genomic analysis to industrially an industrially relevant, xylose ferment yeast strain. Presently there are no available genome-wide deletion mutant collections in industrial yeast, so we took a complementary approach. The MoBY-ORF 2.0 plasmid collection is with barcoded versions of 95% of all S. cerevisiae genes each expressed on a 2μ plasmid. This collection of plasmids can be pooled and transformed into any yeast to allow investigations of the effect of gene dose under stress conditions. We transformed a version of the xylose-fermenting yeast GLBRC-Y133 [15] en masse with the pooled plasmid collection and selected over 50K individual transformants (10× genome coverage). We grew this pooled transformant collection in the presence of 2.5% GVL or a water control under anaerobic conditions in glucose/xylose containing media and assessed the effects of increased gene dose on growth in the presence of GVL. We found the Pad1p overexpression mutant was one of the top sensitive strains (p<0.01, FIG. 4C). […]
(§1) Compounds tested were purchased from Sigma. […] Plates were read on a TECAN M1000 over a 48 h growth period. The specific growth rate was calculated using GCAT analysis software (available at gcat3-pub.glbrc.org on the world wide web). When presented, IC50 values for growth inhibition were calculated from triplicate 8 point dose curves and SigmaPlot 12.0. […]

Another assay relates to Y133 background strain. Kind of assay: Growth and sugar conversion in synthetic hydrolysate with 1% GVL. The following applies: anaerobic, synthetic hydrolysate containing 1% GVL; FIG. 5D. The method, then:
(§2) 6 25-mL anaerobic flasks were prepared with Synthetic hydrolysate (SynH) (6% glucose/3% xylose)+1% GVL, pH 5.0. Flasks were inoculated with rinsed 133 or 133 pad1Δfdc1Δ cells to bring the initial OD to approximately 0.1. The tubes were grown for 72 hours with agitation anaerobically at 30° C. 1 mL samples were taken every 24 hours. Initial and daily samples were measured for OD and submitted for HPLC analysis to quantify sugar consumption and ethanol production.

Assay [2] has as its system Y133 pad1Δfdc1Δ. Described as above. Conditions: anaerobic, synthetic hydrolysate containing 1% GVL; FIG. 5D. The method, then: as §2
Assay [3] concerns PAD1 deletion mutant in the standard lab strain background. In words: GVL IC50, growth inhibition. The following applies: single mutant validation; FIG. 4B. The procedure: (§3) Compounds tested were purchased from Sigma. Cells of S. cerevisiae (MATα pdr1Δ::natMX pdr3Δ::KI.URA3 snq2Δ::KI.LEU2 can1Δ::STE2pr-Sp_his5 lyp1Δ his3Δ1 leu2Δ0 ura3Δ0 met15Δ0), referred to as control strain, were grown in 200 μl cultures at 30° C. in YPD, with a drug or DMSO control. Plates were read on a TECAN M1000 over a 48 h growth period. The specific growth rate was calculated using GCAT analysis software (available at gcat3-pub.glbrc.org on the world wide web). When presented, IC50 values for growth inhibition were calculated from triplicate 8 point dose curves and SigmaPlot 12.0. When presented, error bars are Mean±Standard error of at least 3 replicates.

Assay [4] relates to FDC1 deletion mutant in the standard lab strain background. In words: GVL IC50, growth inhibition. The following applies: single mutant validation; FIG. 4B. The procedure: as §3
The subject of assay [5] is deletion mutants of SEC28, VPS38, DID2. In words: Single mutant validation of GVL sensitivity. Conditions: single mutant cultures; FIG. 2C.
Description: Among the top 10 sensitive deletion mutants, we found significant enrichment for genes involved in late endosome to vacuole transport (p<0.01, FIG. 2B), driven by deletion mutants of SEC28, VPS38, DID2. […] Deletion mutants of these 3 genes have increased sensitivity to ethanol, heat, and membrane disrupting agents such as miconazole and nigercin. When we correlated the chemical genomic profile of GVL with the yeast genetic interaction network, we found significant enrichment for genes involved in golgi-vesicle mediated transport among the top 10 correlations (p=0.001). RET2 was consistently predicted as the top correlation for the GVL chemical genomic profile. Ret2p is a subunit of the coatomer complex involved in retrograde transport between Golgi and ER is also involved in golgi transport of vesicles. RET2 mutants similarity show increased sensitivity to heat and membrane disrupting agents.
as §1

The next assay has as its system lab strain. In words: GVL-ethanol synergy, growth. The following applies: FIG. 3C. The procedure: (§4) To test for synergy, a 6×6 dose matrix was initially used to identify potentially synergistic dose combinations, these points were then confirmed in triplicate. 200 μl cultures were grown with combinations of with poacic acid (125 μg/ml), caspofungin (12.5 ng/ml) and fluconazole (3.8 μg/ml) and the relevant single agent and solvent controls their OD measured after 24 h. Synergy was determined by comparing actual optical density in the presence of compound combinations to an expected value calculated using the multiplicative hypothesis. This assumes that, in the absence of an interaction, each compound would decrease the OD of the cell culture by the same fraction in the presence of the other compound as it does when applied alone, i.e., E=A*B/C, where E is the expected OD, A is OD when compound A is applied alone, B is OD when compound B is applied alone, and C is OD of the control culture (DMSO). In the presence of synergy, the actual OD value is lower than the expected OD. A paired t-test was used to confirm statistical significance of this difference in 3 replicates of the experiment.
(§5) The synergistic interaction between GVL and ethanol was initially discovered using a 6-point dose matrix of the two compounds. We identified the points of the greatest synergy and perform triplicate growth curves of GLBRY-128 using a TECAN M1000 microplate reader. To confirm the GVL-R1 strain was less sensitive to the synergism between GVL and ethanol, used a 6-point dose matrix as described above with both GLBRCY-128 or GVL-R1 in a TECAN microplate reader for 48 hours at 30° C. Data from the most synergistic combination is presented (2% GVL-5% ethanol).

The test system of another assay is xylose fermenting strain. Kind of assay: GVL-ethanol synergy, growth. The following applies: FIG. 3C. The procedure:
as §4, §5

Assay [6] deals with membrane integrity of yeast cells. Kind of assay: Cell leakage assay (dye uptake, flow cytometry). The following applies: dye uptake after treatment; FIG. 3A, B. The source says:
To confirm if GVL treatment can rapidly affect cell integrity, we assessed cell permeability after GVL treatment. […] Given that both GVL and ethanol can damage cellular membranes, we also tested if these compounds are synergistic.
A FungaLight™ cell viability assay (Invitrogen L34952) was used to determine if poacic acid caused membrane damage we used using a Guava Flow Cytometer (Millipore, USA). The population of stained cells (damaged integrity) vs non-stained cells can be determined by flow cytometry. Caspofungin (50 ng/ml) was included as a positive control. MMS and DMSO were included as a non-cell wall targeting and solvent control respectively. To test the effects of the compounds on both active and arrested cells, log-phase cultures were washed with 1×PBS and resuspended to an OD of 0.5 in either YPD media or YP (no carbon source) in the presence of the drugs (n=3) for 4 hours at 30° C. The cells were then stained and immediately read by flow cytometry. A one-way ANOVA and Tukey's test was used to calculate the difference between drug treatments among cells with arrested growth.

Assay [7] deals with yeast. In words: 4-vinylphenol-GVL synergy, growth. The following applies: FIG. 6C; p<0.01.
Assay [8] deals with yeast. Kind of assay: IC50 determination, growth inhibition (strain not stated at the result). Conditions: FIG. 6B; p<0.001. The procedure: as §3

These results are taken from patent US10006057B2, “Recombinant yeast having enhanced gamma valerolactone tolerance and methods of use” (Wisconsin Alumni Research Foundation, priority 2014, dated 2018).

“Also recorded” adds a separate entry of the source.

As to poacic acid, the “concentration giving 70-80% growth versus solvent control” value in the assay with S. cerevisiae turned out to be 88 µg/mL.
In the case of `CC1CCC(=O)O1` (centres unmarked) [GVL, gamma valerolactone], the “IC50 concentration / tolerance of GVL versus Y133 background” value in the assay with Y133 pad1Δfdc1Δ [1] is given as “significantly greater; also recorded: significantly higher”. The “GVL tolerance with increased expression of PAD1” value with Y133 + pPAD1 is listed as “significantly reduced GVL tolerance”. For the same molecule, the “growth, sugar consumption and ethanol production in presence of GVL” value with Y133 background strain is “did not”; in the assay with Y133 pad1Δfdc1Δ [2] it was “faster growth, sugar consumption, and ethanol production; also recorded: grew, consumed sugars, and produced ethanol”. Further, the “GVL tolerance of deletion mutant” value in assay [3] and in assay [4] was “more tolerant; also recorded: improved GVL tolerance” in each case. Moreover, in [5], the “GVL IC50 / sensitivity compared to the control strain” value is recorded as “significantly more sensitive; also recorded: lower IC50”. Besides, the “synergism between GVL and ethanol” value in the assay with lab strain and in the assay with xylose fermenting strain (xylose fermenting strain) was “strong synergism” each time. Besides, in the assay with xylose fermenting strain (1% GVL and 4% ethanol, p<0.01), the “synergistic interaction between GVL and ethanol” value is “significantly synergistic; also recorded: significant synergistic interaction”. The “GVL concentration at which loss of membrane integrity is apparent” value in assay [6] is 2.5%.
Turning to `C=Cc1ccc(O)cc1` [4-vinylphenol], the “synergistic interaction between 4-vinylphenol and GVL” value with yeast [7] is recorded as “significantly synergistic; also recorded: statistically significant synergistic interaction”. Also, the “IC50 / toxicity of 4-vinylphenol relative to coumaric acid” value in the assay on yeast [8] was “significantly more toxic; also recorded: an order of magnitude lower”.
